In brackets after ≈: the same amount, converted by molar mass.
Experiment: solubility of compounds having formula (VII) in ethyl acetate
Conditions: organic solvent or mixture

CCOC(=O)c1cn(-c2nc(N)c(F)cc2F)c2cc(N3CC(OC(=O)C(C)C)C3)c(F)cc2c1=O [CH(CH3)2, ethyl 1-(6-amino-3,5-difluoropyridin-2-yl)-6-fluoro-7-(3-(isobutyryloxy)azetidin-1-yl)-4-oxo-1,4-dihydroquinoline-3-carboxylate]
solubility: 6400 µg/mL (≈ 12.7 mM)

Source: patent US8927723B2, “Preparation of pyridonecarboxylic acid antibacterials” (AbbVie, Inc., priority 2004, dated 2015)
